Assay results as given in patent US5705508A, “Anti-tumor compounds, pharmaceutical compositions, methods for preparation thereof and for treatment” (priority 1995, dated 1998).
“Also recorded” adds a separate entry of the source. Read-outs that look alike come from different tables or passages of the source.

How the values were obtained:
MCF7 (breast cancer) = assay: Anticancer activity, inhibition of cell proliferation, MCF7 (breast); assay type: cell-based; conditions: Homo sapiens
Method: (§1) Compounds SB-T-101131, SB-T-101133, SB-T-101134, SB-T-10114, SB-T-101141, SB-T-101142, SB-T-101143, SB-T-101144, SB-T-101146, SB-T-101151 and SB-T-101161 were prepared according to the protocols described in Examples 59 and 60 above. These compounds were evaluated for cancer activity against human cancer cell lines of A121 (ovarian cancer), A549 (non-small cell lung cancer), HT-29 (colon cancer), MCF7 (breast cancer), and MCF7-R (adriamycin resistant breast cancer). Table 1 below illustrates the activity of these compounds as IC50 values in a nM concentration.
(§2) […] ACTIVITY OF NEW TAXANES (IC50 nM).
(§3) ^a IC50 represents the concentration that inhibits 50% of cell
(§4) proliferation. ^b MCF7R = mammary carcinoma cells 180 fold resistant
(§5) The cytotoxicities of the new taxanes shown in FIG. 1 hereto and listed in Table 1 were evaluated in vitro against human cancer cell lines according to methods more particularly described in Ojima, I., et al., "Structure--Activity Relationships of New Taxoids Derived from 14β-Hydroxy-10-Deacetyl/Baccatin III," Journal of Medicinal Chemistry, 37, 1408-1410 (1994) and Ojima, I., et al., "Synthesis and Biological Activity of 14-hydroxydocetaxel," Bioorganic and Medicinal Chemistry Letters, 4, 1571-1576 (1994) the contents of which are incorporated herein by reference as if set forth in full.

HT-29 (colon cancer) = assay: Anticancer activity, inhibition of cell proliferation, HT-29 (colon); assay type: cell-based; conditions: Homo sapiens
Method: as §1, §2, §3, §4, §5

A121 (ovarian cancer) = assay: Anticancer activity, inhibition of cell proliferation, A121 (ovarian); assay type: cell-based; conditions: Homo sapiens
Method: as §1, §2, §3, §4, §5

[1] = test system: MCF7-R (adriamycin resistant breast cancer); assay: Anticancer activity, inhibition of cell proliferation, MCF7-R (adriamycin resistant breast); assay type: cell-based; conditions: Homo sapiens, MCF7R, read-out: IC50, MCF7-R
Method: as §1, with “cancer).” for “cancer). Table 1 below illustrates the activity of these compounds as IC50 values in a nM concentration.”
as §3, §4, §5

[2] = test system: A549 (non-small cell lung cancer); assay: Anticancer activity, inhibition of cell proliferation, A549 (NSCLC); assay type: cell-based; conditions: Homo sapiens
Method: as §1, §2, §3, §4, §5

[3] = aqueous media, cited from earlier work
different cancers = conditions: background statement; cited from earlier work
[4] = clinical trials; cited from earlier work
[5] = compared with Taxol; listed as Taxotere; cited from earlier work
[6] = concentration that inhibits 50% of cell proliferation, MCF7 (breast), read-out: IC50, MCF7 (breast)
[7] = concentration that inhibits 50% of cell proliferation, HT-29 (colon), read-out: IC50, HT-29 (colon)
[8] = concentration that inhibits 50% of cell proliferation, A121 (ovarian), read-out: IC50, A121 (ovarian)
[9] = concentration that inhibits 50% of cell proliferation, mammary carcinoma cells 180 fold resistant to adriamycin
[10] = concentration that inhibits 50% of cell proliferation, A549 (NSCLC), read-out: IC50, A549 (NSCLC)

| Compound | IC50 (MCF7 (breast cancer); [6]) [nM] | IC50 (HT-29 (colon cancer); [7]) [nM] | IC50 (A121 (ovarian cancer); [8]) [nM] | IC50 [1, 9] [nM] | IC50 [2, 10] [nM] | also measured |
| --- | --- | --- | --- | --- | --- | --- |
| CC(=O)OC12COC1CC(O)C1(C)C(=O)C(OC(=O)N(C)C)C3=C(C)C(OC(=O)C(O)C(C=C(C)C)NC(=O)OC(C)(C)C)C4OC(=O)OC4(C(OC(=O)c4ccccc4)C21)C3(C)C (stereo not drawn) [SB-T-101144] | 0.2 | 1.2 | 0.7 | 22 | 0.6 | – |
| CC(=O)OC1C(=O)C2(C)C(O)CC3OCC3(OC(C)=O)C2C(OC(=O)c2ccccc2)C23OC(=O)OC2C(OC(=O)C(O)C(NC(=O)OC(C)(C)C)c2ccco2)C(C)=C1C3(C)C (stereo not drawn) [SB-T-101161] | 0.5 | 0.6 | 0.4 | 58 | 0.5 | – |
| CC(=O)O[C@@]12CO[C@@H]1C[C@H](O)[C@@]1(C)C(=O)[C@H](O)C3=C(C)[C@@H](O)[C@H](O)[C@@](O)([C@@H](OC(=O)c4ccccc4)[C@H]21)C3(C)C [14-OH-DAB, 14-Hydroxy-10-deacetylbaccatin III] | – | – | – | – | – | water solubility [3]: much higher water solubility than the usual 10-deacetylbaccatin III |
| CC(=O)O[C@H]1C(=O)[C@@]2(C)[C@H]([C@H](OC(=O)c3ccccc3)[C@]3(O)C[C@H](OC(=O)[C@H](O)[C@@H](NC(=O)c4ccccc4)c4ccccc4)C(C)=C1C3(C)C)[C@]1(OC(C)=O)CO[C@@H]1C[C@@H]2O [Paclitaxel, reference compound] | 1.7 | 3.2 | 6.1 | 300 | 3.6 | water solubility ([3]; listed as Taxol): limited solubility in aqueous media; also recorded: poor water solubility; cytotoxicity and antitumor activity (different cancers): high cytotoxicity and strong antitumor activity; side effects [4]: nerve damage, muscle pain or disturbances in heart rhythm |
| COC(=O)OC1C(=O)C2(C)C(O)CC3OCC3(OC(C)=O)C2C(OC(=O)c2ccccc2)C23OC(=O)OC2C(OC(=O)C(O)C(C=C(C)C)NC(=O)OC(C)(C)C)C(C)=C1C3(C)C (stereo not drawn) [SB-T-101146] | 0.3 | 0.7 | 0.6 | 38 | 0.5 | – |
| CC(=O)O[C@@]12CO[C@@H]1C[C@H](O)[C@@]1(C)C(=O)[C@H](O)C3=C(C)[C@@H](OC(=O)[C@H](O)[C@@H](NC(=O)OC(C)(C)C)c4ccccc4)C[C@@](O)([C@@H](OC(=O)c4ccccc4)[C@H]21)C3(C)C [Docetaxel] | 1 | 1.2 | 1.2 | – | 1 | water solubility [3]: somewhat improved water solubility; bioavailability / pharmacological properties [5]: better pharmacological properties than Taxol; also recorded: better bioavailability; cytotoxicity and antitumor activity (different cancers): antitumor activity superior to Taxol; side effects [4]: mouth sores and a plunge in white blood cell count |
| CC(=O)OC1C(=O)C2(C)C(O)CC3OCC3(OC(C)=O)C2C(OC(=O)c2ccccc2)C23OC(=O)OC2C(OC(=O)C(O)C(C=C(C)C)NC(=O)OC(C)(C)C)C(C)=C1C3(C)C (stereo not drawn) [SB-T-101141] | 3.3 | 2.4 | 1.5 | 36 | 1.4 | – |
| CC(=O)OC12COC1CC(O)C1(C)C(=O)C(OC(=O)C3CC3)C3=C(C)C(OC(=O)C(O)C(C=C(C)C)NC(=O)OC(C)(C)C)C4OC(=O)OC4(C(OC(=O)c4ccccc4)C21)C3(C)C (stereo not drawn) [SB-T-101143] | 0.2 | 1 | 0.5 | 24 | 0.5 | – |
| CC(=O)OC12COC1CC(O)C1(C)C(=O)C(OC(=O)C3CC3)C3=C(C)C(OC(=O)C(O)C(CC(C)C)NC(=O)OC(C)(C)C)C4OC(=O)OC4(C(OC(=O)c4ccccc4)C21)C3(C)C (stereo not drawn) [SB-T-101133] | 0.7 | 3.3 | 1.1 | 22 | 1.2 | – |
| CCC(=O)OC1C(=O)C2(C)C(O)CC3OCC3(OC(C)=O)C2C(OC(=O)c2ccccc2)C23OC(=O)OC2C(OC(=O)C(O)C(C=C(C)C)NC(=O)OC(C)(C)C)C(C)=C1C3(C)C (stereo not drawn) [SB-T-101142] | 0.1 | 0.6 | 0.7 | 21 | 0.5 | – |
| CC(=O)OC12COC1CC(O)C1(C)C(=O)C(OC(=O)N(C)C)C3=C(C)C(OC(=O)C(O)C(CC(C)C)NC(=O)OC(C)(C)C)C4OC(=O)OC4(C(OC(=O)c4ccccc4)C21)C3(C)C (stereo not drawn) [SB-T-101134] | – | – | – | – | – | IC50 (MCF7 (breast cancer); MCF7, read-out: IC50, MCF7 (breast)): 0.6 nM; IC50 (HT-29 (colon cancer); HT-29, read-out: IC50, HT-29 (colon)): 1.3 nM; IC50 (A121 (ovarian cancer); A121, read-out: IC50, A121 (ovarian)): 0.6 nM; IC50 [1]: 22 nM; IC50 ([2]; A549, read-out: IC50, A549 (NSCLC)): 0.6 nM |
| CC(=O)OC12COC1CC(O)C1(C)C(=O)C(O)C3=C(C)C(OC(=O)C(O)C(C=C(C)C)NC(=O)OC(C)(C)C)C4OC(=O)OC4(C(OC(=O)c4ccccc4)C21)C3(C)C (stereo not drawn) [SB-T-10114] | 0.5 | 0.5 | 1.7 | 54 | 0.2 | – |
| CC=CC(NC(=O)OC(C)(C)C)C(O)C(=O)OC1C(C)=C2C(OC(C)=O)C(=O)C3(C)C(O)CC4OCC4(OC(C)=O)C3C(OC(=O)c3ccccc3)C3(OC(=O)OC13)C2(C)C (stereo not drawn) [SB-T-101151] | 1.6 | 3 | 2.4 | 49 | 0.4 | – |
| CC(=O)O[C@H]1C(=O)[C@@]2(C)[C@H]([C@H](OC(=O)c3ccccc3)[C@]34OC(=O)O[C@H]3[C@H](OC(=O)[C@H](O)[C@H](CC(C)C)NC(=O)OC(C)(C)C)C(C)=C1C4(C)C)[C@]1(OC(C)=O)CO[C@@H]1C[C@@H]2O [SB-T-101131] | 1.1 | 1.5 | 1.2 | 36 | 0.7 | – |
